Measured values as given in article PMC9603901, “Therapeutic Potential of Antimicrobial Peptide PN5 against Multidrug-Resistant E. coli and Anti-Inflammatory Activity in a Septic Mouse Model” (Microbiology Spectrum, 2022).
≈ marks a conversion by molar mass, not a printed value.

Legend:
[1] = test system: MDR E. coli ASEC 10; experiment: microbe, parasite or virus in culture; format: cell-based, Escherichia coli; conditions: microdilution, LB, 18 to 24 h, 37°C, three independent experiments
Experimental: (§1) Bacterial cells were cultured at 37°C in the appropriate culture media with shaking (180 rpm). Luria-Bertani broth (LB) (244620; BD Difco) was used for E. coli ATCC 25922, ASEC strains, and B. subtilis KCTC 2217. Nutrient broth (NB) (234000; BD Difco) was used for P. aeruginosa ATCC 27853, S. Typhimurium KCTC 1926, and A. baumannii KCTC 2508. Tryptic soy broth (TSB) (211825; BD Difco) was used for S. aureus ATCC 25923. Finally, brain heart infusion (BHI) (237500; BD Difco) was used for L. monocytogenes KCTC 3710. The antimicrobial activity of each peptide was determined using microdilution assays. To this end, 2-fold serial dilution series of each peptide (from 1 to 64 μM) were added to duplicate media with 10 mM sodium phosphate buffer (pH 7.4). Fifty microliters of the peptide and antibiotic solution was added to each well of a 96-well plate (32096, surface nontreatment; SPL Life Sciences). Then, 50 μL of 2 × 10^5 CFU mL^−1 of bacteria was added to each well, and the samples were incubated for 18 to 24 h without shaking at 37°C.

[2] = test system: MDR E. coli ASEC 11; experiment: microbe, parasite or virus in culture; format: cell-based, Escherichia coli; conditions: microdilution, LB, 18 to 24 h, 37°C, three independent experiments
Experimental: as §1

[3] = test system: MDR E. coli ASEC 12; experiment: microbe, parasite or virus in culture; format: cell-based, Escherichia coli; conditions: microdilution, LB, 18 to 24 h, 37°C, three independent experiments
Experimental: as §1

[4] = test system: MDR E. coli ASEC 13; experiment: microbe, parasite or virus in culture; format: cell-based, Escherichia coli; conditions: microdilution, LB, 18 to 24 h, 37°C, three independent experiments
Experimental: as §1

[5] = test system: MDR E. coli ASEC 14; experiment: microbe, parasite or virus in culture; format: cell-based, Escherichia coli; conditions: microdilution, LB, 18 to 24 h, 37°C, three independent experiments
Experimental: as §1

[6] = test system: MDR E. coli ASEC 15; experiment: microbe, parasite or virus in culture; format: cell-based, Escherichia coli; conditions: microdilution, LB, 18 to 24 h, 37°C, three independent experiments
Experimental: as §1

[7] = test system: MDR E. coli ASEC 16; experiment: microbe, parasite or virus in culture; format: cell-based, Escherichia coli; conditions: microdilution, LB, 18 to 24 h, 37°C, three independent experiments
Experimental: as §1

[8] = test system: MDR E. coli ASEC 17; experiment: microbe, parasite or virus in culture; format: cell-based, Escherichia coli; conditions: microdilution, LB, 18 to 24 h, 37°C, three independent experiments
Experimental: as §1

[9] = test system: MDR E. coli ASEC 18; experiment: microbe, parasite or virus in culture; format: cell-based, Escherichia coli; conditions: microdilution, LB, 18 to 24 h, 37°C, three independent experiments
Experimental: as §1

[10] = test system: MDR E. coli ASEC 19; experiment: microbe, parasite or virus in culture; format: cell-based, Escherichia coli; conditions: microdilution, LB, 18 to 24 h, 37°C, three independent experiments
Experimental: as §1

[11] = test system: MDR E. coli ASEC 1; experiment: microbe, parasite or virus in culture; format: cell-based, Escherichia coli; conditions: microdilution, LB, 18 to 24 h, 37°C, three independent experiments
Experimental: as §1

[12] = test system: MDR E. coli ASEC 2; experiment: microbe, parasite or virus in culture; format: cell-based, Escherichia coli; conditions: microdilution, LB, 18 to 24 h, 37°C, three independent experiments
Experimental: as §1

[13] = test system: MDR E. coli ASEC 3; experiment: microbe, parasite or virus in culture; format: cell-based, Escherichia coli; conditions: microdilution, LB, 18 to 24 h, 37°C, three independent experiments
Experimental: as §1

[14] = test system: MDR E. coli ASEC 4; experiment: microbe, parasite or virus in culture; format: cell-based, Escherichia coli; conditions: microdilution, LB, 18 to 24 h, 37°C, three independent experiments
Experimental: as §1

[15] = test system: MDR E. coli ASEC 5; experiment: microbe, parasite or virus in culture; format: cell-based, Escherichia coli; conditions: microdilution, LB, 18 to 24 h, 37°C, three independent experiments
Experimental: as §1

[16] = test system: MDR E. coli ASEC 6; experiment: microbe, parasite or virus in culture; format: cell-based, Escherichia coli; conditions: microdilution, LB, 18 to 24 h, 37°C, three independent experiments
Experimental: as §1

[17] = test system: MDR E. coli ASEC 7; experiment: microbe, parasite or virus in culture; format: cell-based, Escherichia coli; conditions: microdilution, LB, 18 to 24 h, 37°C, three independent experiments
Experimental: as §1

[18] = test system: MDR E. coli ASEC 8; experiment: microbe, parasite or virus in culture; format: cell-based, Escherichia coli; conditions: microdilution, LB, 18 to 24 h, 37°C, three independent experiments
Experimental: as §1

[19] = test system: MDR E. coli ASEC 9; experiment: microbe, parasite or virus in culture; format: cell-based, Escherichia coli; conditions: microdilution, LB, 18 to 24 h, 37°C, three independent experiments
Experimental: as §1

[20] = test system: S. Typhimurium KCTC 1926; format: cell-based, Salmonella enterica serovar Typhimurium; conditions: microdilution, NB, 18 to 24 h, 37°C, three independent experiments
Experimental: as §1

[21] = test system: A. baumannii KCTC 2508; format: cell-based, Acinetobacter baumannii; conditions: microdilution, NB, 18 to 24 h, 37°C, three independent experiments
Experimental: as §1

[22] = test system: B. subtilis KCTC 2217; format: cell-based, Bacillus subtilis; conditions: microdilution, LB, 18 to 24 h, 37°C, three independent experiments
Experimental: as §1

[23] = test system: L. monocytogenes KCTC 3710; format: cell-based, Listeria monocytogenes; conditions: microdilution, BHI, 18 to 24 h, 37°C, three independent experiments
Experimental: as §1

[24] = test system: mouse red blood cells; experiment: Hemolytic activity; format: cell-based; conditions: 8% mouse red blood cells, 1 h, 37°C
Experimental: (§2) RAW 264.7 cells (mouse macrophage cells) were maintained in high-glucose Dulbecco’s modified Eagle medium (DMEM) (Welgene, Daegu, South Korea) supplemented with 10% fetal bovine serum (FBS) (Gibco) and 1% penicillin at 37°C in humidified 5% CO2. Cells (2 × 10^5 cells well^−1) were seeded into DMEM supplemented with 10% FBS medium in a 96-well plate. The MTT assay was performed after culturing the cells in 96-well plates at a density of 2 × 10^5 cells well^−1, followed by treatment with serially diluted PN5, magainin 2, and melittin. After 24 h, the medium was discarded, and 100 μL DMEM and 10% FBS medium containing 0.5 mg mL^−1 MTT were added to each well. After 4 h of incubation, the medium was discarded and dimethyl sulfoxide was added to each well to solubilize the formazan. The optical densities at 570 and 650 nm (OD570 and OD650, respectively) of the treated cells were compared to those of control cells. The hemolytic activity of the peptides was evaluated as the release of hemoglobin from an 8% mRBC suspension. A 100-μL aliquot of the 8% mRBC suspension was added to the wells of a 96-well plate, and 100 μL of peptide solution in phosphate-buffered saline (PBS) was added at a final peptide concentration of 200 μM. After incubation for 1 h at 37°C with shaking (50 rpm), the suspensions were centrifuged at 1,000 × g for 5 min. The absorbance of the supernatant was measured at 414 nm using a Versa Max microplate reader (Molecular Devices). As a control, no hemolysis and complete hemolysis were determined in PBS and 0.1% Triton X-100, respectively. The degree of hemolysis was calculated using the following equation as described in reference: %hemolysis=[(A414withpeptide-A414withPBS)/(A414with0.1%TritonX-100-A414 with PBS)] × 100

[25] = test system: RAW 264.7 cells; experiment: MTT cell viability; format: cell-based, mouse; conditions: 24 h
Experimental: as §2

[26] = test system: RAW 264.7 cells; experiment: IncuCyte Cytotox green time-dependent cytotoxicity; format: cell-based, mouse; conditions: 25 μM
Experimental: An IncuCyte cytotoxicity assay (Essen BioScience, Inc., Ann Arbor, MI, USA) was performed to evaluate time-dependent cytotoxicity. RAW 264.7 cells (2 × 10^5 cells well^−1) were seeded into 96-well culture plates and then treated with peptides and IncuCyte Cytotox green reagent (Essen BioScience, Inc.). Up to 200 μM PN5 and 25 μM melittin were used to treat RAW 264.7 cells, with the concentrations serially diluted by half. […] The cells were stained with IncuCyte Cytotox green reagent. The viability was measured using IncuCyte software (Essen BioScience, Inc.) ([56]).

[27] = test system: P. aeruginosa ATCC 27853; format: cell-based, Pseudomonas aeruginosa; conditions: microdilution, NB, 18 to 24 h, 37°C, three independent experiments
Experimental: as §1

[28] = test system: S. aureus ATCC 25923; format: cell-based, Staphylococcus aureus; conditions: microdilution, TSB, 18 to 24 h, 37°C, three independent experiments
Experimental: as §1

[29] = test system: E. coli ATCC 25922; experiment: NPN uptake, outer membrane permeability; format: cell-based, Escherichia coli; conditions: E. coli ATCC 25922, 4× MIC, 60 min, 10 μM NPN, relative to 0.1% Triton X-100
Experimental: The ability of PN5 to permeate the outer bacterial membrane was determined based on the uptake of NPN, a fluorescent dye. Briefly, E. coli 25922 cells grown to the logarithmic phase at 37°C were harvested by centrifugation at 6,000 × g and 4°C for 10 min. The bacterial cells were washed twice with 5 mM HEPES buffer (pH 7.4) and resuspended to OD600 of 0.4. NPN was added to the bacterial suspension at a final concentration of 10 μM. Aliquots of the peptides were added to the bacterial suspensions. Background fluorescence was recorded using a fluorescence spectrophotometer. The excitation and emission wavelengths were set to 350 and 420 nm, respectively. The values were converted to percentage of NPN uptake using the equation % NPN uptake = [(Fobs − F0)/(F100 − F0)] × 100, where Fobs is the fluorescence observed at each peptide concentration, F0 is the initial fluorescence of NPN with E. coli in the absence of peptides, and F100 is the fluorescence of NPN upon the addition of 0.1% Triton X-100, which was used as a positive control ([57]).

Compound | MIC [1] | MIC [2] | MIC [3] | MIC [4] | MIC [5] | MIC [6] | MIC [7] | MIC [9] | MIC [11] | MIC [12] | MIC [13] | MIC [15] | MIC [16] | MIC [17] | MIC [18] | MIC [19] | MIC [21] | MIC [22] | other results
CC[C@H](C)[C@H](NC(=O)CN)C(=O)NCC(=O)N[C@@H](C)C(=O)N[C@H](C(=O)N[C@@H](CC(C)C)C(=O)N[C@@H](CCCCN)C(=O)N[C@H](C(=O)N[C@@H](CC(C)C)C(=O)N[C@H](C(=O)N[C@H](C(=O)NCC(=O)N[C@@H](CC(C)C)C(=O)N1CCC[C@H]1C(=O)N[C@@H](C)C(=O)N[C@@H](CC(C)C)C(=O)N[C@H](C(=O)N[C@@H](CO)C(=O)N[C@@H](Cc1c[nH]c2ccccc12)C(=O)N[C@H](C(=O)N[C@@H](CCCCN)C(=O)N[C@@H](CCCNC(=N)N)C(=O)N[C@@H](CCCCN)C(=O)N[C@@H](CCCNC(=N)N)C(=O)N[C@@H](CCC(N)=O)C(=O)N[C@@H](CCC(N)=O)C(N)=O)[C@@H](C)CC)[C@@H](C)CC)[C@@H](C)O)[C@@H](C)O)C(C)C)C(C)C [Melittin] | 4 (11.39) μM | 4 (11.39) μM | 4 (11.39) μM | 4 (11.39) μM | 2 (5.69) μM | 4 (11.39) μM | 4 (11.39) μM | 4 (11.39) μM | 4 (11.39) μM | 4 (11.39) μM | 4 (11.39) μM | 2 (5.69) μM | 4 (11.39) μM | 4 (11.39) μM | 4 (11.39) μM | 4 (11.39) μM | 2 µM | 2 µM | MIC [8]: 8 (22.77) μM; MIC [10]: 8 (22.77) μM; MIC [14]: 8 (22.77) μM; MIC [20]: 4 µM (≈ 11.4 µg/mL); MIC [23]: 4 µM (≈ 11.4 µg/mL); hemolysis ([24]; 3.125 μM, PBS, A414, mean of three experiments): 44.02%; hemolysis ([24]; 6.25 μM): 77.24%; toxicity, MTT assay ([25]; 6.25 μM): over 50%; cytotoxicity, Cytotox green fluorescence [26]: immediately damaged the cells
Magainin 2 | 16 (39.47) μM | 16 (39.47) μM | 16 (39.47) μM | 16 (39.47) μM | 4 (9.87) μM | 16 (39.47) μM | 8 (19.74) μM | 16 (39.47) μM | 16 (39.47) μM | 8 (19.74) μM | 16 (39.47) μM | 16 (39.47) μM | 4 (9.87) μM | 8 (19.74) μM | 16 (39.47) μM | 8 (19.74) μM | 19.74 µg/mL | 39.47 µg/mL | MIC [27]: 32 µM; MIC [28]: 39.47 µg/mL; toxicity, MTT assay ([25]; 200 μM): over 50%; NPN uptake [29]: 35.7%
